Laboratory results from the supplement of paper PMC8617591.

How the values were obtained:
[1] = tested on: Mycobacterium tuberculosis Erdman (autoluminescent); assay: FIC90 (Loewe) at 90% inhibition (log2); higher = more antagonistic
Description: (§1)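 DiaMOND equipotent two-drug combination dose responses against autoluminescent M. tuberculosis Erdman in 8 in vitro models. Read-out is OD600, or luminescence for the intracellular and dormancy models, normalised to untreated wells. Hill-fit Einf, AUC25 and GRinf are potency metrics; FIC50 and FIC90 are Loewe-additivity fractional inhibitory concentrations, given as log2 (negative = synergy). Replicates are averaged.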

[2] = tested on: Mycobacterium tuberculosis Erdman (autoluminescent); assay: FIC50 (Loewe) at 50% inhibition (log2); higher = more antagonistic
Description: as §1

[3] = tested on: Mycobacterium tuberculosis Erdman (autoluminescent); assay: Einf, fitted maximum growth inhibition of combination (fraction); higher = stronger maximal inhibition
Description: as §1

[4] = tested on: Mycobacterium tuberculosis Erdman (autoluminescent); assay: AUC25, normalised area under dose response up to IC25 (fraction (0-1)); higher = more potent at low dose
Description: as §1

[5] = tested on: Mycobacterium tuberculosis Erdman (autoluminescent); assay: GRinf, maximum normalised growth rate inhibition (unitless (-1 to 1)); higher = less effect (negative = killing)
Description: as §1

[6] = in vitro model: acidic pH 5.7, time point: constant (~7 days, model-specific)
[7] = in vitro model: acidic pH 5.7, time point: terminal (~4-5 doublings, model-specific)
[8] = in vitro model: butyrate, time point: constant (~7 days, model-specific)
[9] = in vitro model: butyrate, time point: terminal (~4-5 doublings, model-specific)
[10] = in vitro model: cholesterol 0.05 mM, time point: terminal (~4-5 doublings, model-specific)
[11] = in vitro model: cholesterol-high 0.2 mM, time point: constant (~7 days, model-specific)
[12] = in vitro model: cholesterol-high 0.2 mM, time point: terminal (~4-5 doublings, model-specific)
[13] = in vitro model: dormancy (butyrate + nitrate, low O2), time point: constant (~7 days, model-specific)
[14] = in vitro model: dormancy (butyrate + nitrate, low O2), time point: terminal (~4-5 doublings, model-specific)
[15] = in vitro model: intracellular J774, time point: constant = terminal
[16] = in vitro model: standard 7H9 glycerol, time point: constant = terminal
[17] = in vitro model: valerate, time point: constant (~7 days, model-specific)
[18] = in vitro model: valerate, time point: terminal (~4-5 doublings, model-specific)
[19] = in vitro model: cholesterol 0.05 mM, time point: constant (~7 days, model-specific)

COc1nc2ccc(Br)cc2cc1[C@@H](c1ccccc1)[C@@](O)(CCN(C)C)c1cccc2ccccc12 [bedaquiline] + O=[N+]([O-])c1cn2c(n1)OC[C@@H](OCc1ccc(OC(F)(F)F)cc1)C2 [pretomanid]
FIC90 [1, 6]: 0.503
FIC90 [1, 7]: 0.292
FIC90 [1, 8]: 1.49
FIC90 [1, 9]: 1.5
FIC90 [1, 10]: 1.33
FIC90 [1, 11]: 1.04
FIC90 [1, 12]: 0.706
FIC90 [1, 13]: -0.857
FIC90 [1, 14]: -1.14
FIC90 [1, 15]: 0.703
FIC90 [1, 16]: 0.269
FIC90 [1, 17]: 1.2
FIC90 [1, 18]: 0.71
FIC50 [2, 6]: 0.399
FIC50 [2, 7]: 0.169
FIC50 [2, 8]: 0.76
FIC50 [2, 9]: 0.874
FIC50 [2, 19]: 0.484
FIC50 [2, 10]: 0.466
FIC50 [2, 11]: 0.673
FIC50 [2, 12]: 0.686
FIC50 [2, 13]: -0.341
FIC50 [2, 14]: -0.522
FIC50 [2, 16]: 0.0934
FIC50 [2, 17]: 0.105
FIC50 [2, 18]: 0.0653
Einf [3, 6]: 0.879
Einf [3, 7]: 0.973
Einf [3, 8]: 0.96
Einf [3, 9]: 0.99
Einf [3, 19]: 0.737
Einf [3, 10]: 0.928
Einf [3, 11]: 0.883
Einf [3, 12]: 0.991
Einf [3, 13]: 0.927
Einf [3, 14]: 0.98
Einf [3, 15]: 1
Einf [3, 16]: 0.982
Einf [3, 17]: 0.935
Einf [3, 18]: 0.96
AUC25 [4, 6]: 0.121
AUC25 [4, 7]: 0.0888
AUC25 [4, 8]: 0.105
AUC25 [4, 9]: 0.0889
AUC25 [4, 19]: 0.118
AUC25 [4, 10]: 0.0926
AUC25 [4, 11]: 0.0648
AUC25 [4, 12]: 0.0479
AUC25 [4, 13]: 0.0466
AUC25 [4, 14]: 0.0475
AUC25 [4, 16]: 0.0817
AUC25 [4, 17]: 0.136
AUC25 [4, 18]: 0.099
GRinf [5, 6]: -0.293
GRinf [5, 7]: -0.358
GRinf [5, 8]: -0.17
GRinf [5, 9]: -0.346
GRinf [5, 19]: -0.158
GRinf [5, 10]: -0.23
GRinf [5, 11]: -0.183
GRinf [5, 12]: -0.576
GRinf [5, 13]: 0.169
GRinf [5, 14]: -0.0913
GRinf [5, 15]: -0.579
GRinf [5, 16]: -0.196
GRinf [5, 17]: -0.238
GRinf [5, 18]: -0.0796

CC(C)/N=c1\cc2n(-c3ccc(Cl)cc3)c3ccccc3nc-2cc1Nc1ccc(Cl)cc1 [clofazimine] + CC(=O)NC[C@H]1CN(c2ccc(N3CCOCC3)c(F)c2)C(=O)O1 [linezolid]
FIC90 [1, 7]: 0.0194
FIC90 [1, 8]: 0.875
FIC90 [1, 9]: 0.85
FIC90 [1, 10]: 1.4
FIC90 [1, 11]: 1.38
FIC90 [1, 12]: 0.449
FIC90 [1, 13]: 0.93
FIC90 [1, 14]: 0.839
FIC90 [1, 15]: 0.457
FIC90 [1, 16]: 0.696
FIC90 [1, 17]: 0.827
FIC90 [1, 18]: 0.597
FIC50 [2, 6]: 0.346
FIC50 [2, 7]: 0.329
FIC50 [2, 8]: 0.573
FIC50 [2, 9]: 0.626
FIC50 [2, 19]: -0.262
FIC50 [2, 10]: -0.033
FIC50 [2, 11]: 0.143
FIC50 [2, 12]: -0.317
FIC50 [2, 13]: 1.67
FIC50 [2, 14]: 1.05
FIC50 [2, 16]: 0.286
FIC50 [2, 17]: -0.104
FIC50 [2, 18]: 0.165
Einf [3, 6]: 0.864
Einf [3, 7]: 0.973
Einf [3, 8]: 0.957
Einf [3, 9]: 0.98
Einf [3, 19]: 0.747
Einf [3, 10]: 0.951
Einf [3, 11]: 0.917
Einf [3, 12]: 0.994
Einf [3, 13]: 0.901
Einf [3, 14]: 0.981
Einf [3, 15]: 0.855
Einf [3, 16]: 0.979
Einf [3, 17]: 0.925
Einf [3, 18]: 0.944
AUC25 [4, 6]: 0.0778
AUC25 [4, 7]: 0.111
AUC25 [4, 8]: 0.113
AUC25 [4, 9]: 0.0908
AUC25 [4, 19]: 0.152
AUC25 [4, 10]: 0.164
AUC25 [4, 11]: 0.131
AUC25 [4, 12]: 0.133
AUC25 [4, 13]: 0.0454
AUC25 [4, 14]: 0.0463
AUC25 [4, 16]: 0.117
AUC25 [4, 17]: 0.148
AUC25 [4, 18]: 0.0982
GRinf [5, 6]: -0.00597
GRinf [5, 7]: -0.305
GRinf [5, 8]: -0.158
GRinf [5, 9]: -0.142
GRinf [5, 19]: -0.0419
GRinf [5, 10]: -0.35
GRinf [5, 11]: -0.536
GRinf [5, 12]: -0.854
GRinf [5, 13]: 0.239
GRinf [5, 14]: -0.123
GRinf [5, 15]: -0.0533
GRinf [5, 16]: -0.276
GRinf [5, 17]: -0.186
GRinf [5, 18]: -0.107

CC(C)/N=c1\cc2n(-c3ccc(Cl)cc3)c3ccccc3nc-2cc1Nc1ccc(Cl)cc1 [clofazimine] + CC[C@@H](CO)NCCN[C@@H](CC)CO [ethambutol]
FIC90 [1, 7]: 0.294
FIC90 [1, 9]: 0.104
FIC90 [1, 12]: 0.466
FIC90 [1, 14]: 0.818
FIC90 [1, 15]: -0.448
FIC90 [1, 16]: 0.12
FIC90 [1, 18]: -0.728
FIC50 [2, 6]: 0.298
FIC50 [2, 7]: 0.474
FIC50 [2, 8]: 0.311
FIC50 [2, 9]: 0.299
FIC50 [2, 19]: 0.526
FIC50 [2, 10]: 0.199
FIC50 [2, 11]: 0.491
FIC50 [2, 12]: 0.255
FIC50 [2, 13]: -0.136
FIC50 [2, 14]: 0.277
FIC50 [2, 16]: -0.113
FIC50 [2, 17]: 0.000309
FIC50 [2, 18]: 0.0811
Einf [3, 6]: 0.702
Einf [3, 7]: 0.937
Einf [3, 8]: 0.947
Einf [3, 9]: 0.975
Einf [3, 19]: 0.635
Einf [3, 10]: 0.854
Einf [3, 11]: 0.983
Einf [3, 12]: 0.999
Einf [3, 13]: 0.788
Einf [3, 14]: 0.967
Einf [3, 15]: 1
Einf [3, 16]: 0.963
Einf [3, 17]: 0.899
Einf [3, 18]: 0.913
AUC25 [4, 6]: 0.101
AUC25 [4, 7]: 0.0812
AUC25 [4, 8]: 0.0939
AUC25 [4, 9]: 0.0809
AUC25 [4, 19]: 0.13
AUC25 [4, 10]: 0.137
AUC25 [4, 11]: 0.089
AUC25 [4, 12]: 0.0861
AUC25 [4, 13]: 0.0731
AUC25 [4, 14]: 0.114
AUC25 [4, 16]: 0.111
AUC25 [4, 17]: 0.144
AUC25 [4, 18]: 0.0819
GRinf [5, 6]: 0.0851
GRinf [5, 7]: -0.228
GRinf [5, 8]: -0.0791
GRinf [5, 9]: -0.0975
GRinf [5, 19]: -0.0623
GRinf [5, 10]: -0.424
GRinf [5, 11]: -0.666
GRinf [5, 12]: -0.935
GRinf [5, 13]: 0.516
GRinf [5, 14]: -0.0829
GRinf [5, 15]: -0.789
GRinf [5, 16]: -0.234
GRinf [5, 17]: -0.321
GRinf [5, 18]: -2.83e-05
